Reference: patent US8653026B2, “Treatment of type 2 diabetes with FTY720” (Diapin Therapeutics LLC, priority 2011, dated 2014)

Key:
Type in all cases: in vivo, mouse
[1] = Observation of cancer formation during the study; conditions: during the course of this invention, 10 mg/kg
Source text: There are several advantages of the present invention. First, FTY720 is a FDA approved medicine for the treatment of patients with relapsing multiple sclerosis (MS) and its safety profile has been well studied during the clinical trial for treatment of relapsing MS, including more than 4,500 patient years of experience, with some patients in their seventh year of treatment. Second, FTY720 is an orally taken therapy and easy to take by patients, compared with insulin and GLP-1 analog therapies that have to be injected into body either by healthcare professionals or by patients themselves. […] Finally, although FTY720 promotes beta-cell regeneration, the risk of tumorigenesis is low.

S1P1 = experiment: S1P receptor expression in islets from db/db mice: S1P1; conditions: after FTY720 treatment of db/db mice
Source text: FIG. 15. Expression of 4 FTY720-bound S1P receptors in the islets isolated from the db/db mice.
FTY720 is phosphorylated in vivo to form FTY720-P that binds S1P1, S1P3, S1P4, and S1P5 but not S1P2 (25). We determined the expression of these receptors in the islets isolated from the untreated and FTY720-treated db/db mice.

Bcl-xL = Bcl-xL mRNA levels in islets of db/db mice; conditions: islets from FTY720-treated db/db mice vs untreated
Method: FIG. 10B. Levels of Bcl-xL mRNA levels of the db/db mice with (+FTY720) or without FTY720 (−FTY720) treatment. *p=0.002
Islets were isolated from pancreases removed from the 13-week-old untreated and FTY720-treated db/db mice by Liberase (Roche Diagnostics) digestion, followed by discontinuous Ficoll gradient separation and manual stereomicroscopic selection to exclude contaminating tissues (30). Isolated islets (or INS-1 cells) were cultured in the medium (composed of RPMI 1640 medium supplemented with 10% fetal bovine serum, 2 mM L-glutamine, 1% sodium pyruvate, 50 μM β-mercaptoethanol, 100 units/ml of penicillin, and 100 μg/ml of streptomycin). For treatment of INS-1 cells, the cells were plated in RPMI medium overnight and changed to Hanks' balanced salt solution containing 2 mM glucose and 0.5% FBS overnight. Then the cells were treated with various conditions in the same medium for 24 hours.
To determine the mechanism of action (MOA) behind the increase in beta-cell mass observed in the treated mice, beta-cell survival was examined.

db/db mice = experiment: Weekly fasting blood glucose in db/db mice given oral FTY720
Method: FIG. 2A. Time course of the fasting glucose levels of db/db mice with or without oral FTY720. Open circle (∘), FTY720-untreated group; solid circle (●), pre-diabetic db/db mice (Fasting glucose<126 mg/dL) at six-week-old treated with 10 mg/kg FTY720; and triangle (▴), diabetic db/db mice (Fasting glucose≅430 mg/dL) at nine-week-old treated with 10 mg/kg FTY720 (n=4). I, Fasting glucose of mice at the age of 6 weeks to 12 weeks at the daily dosage of 10 mg/kg FTY720 (n=20 for the control and FTY720 treated pre-diabetic mice, respectively); II, fasting glucose levels of mice at the age of 12 weeks to 20 weeks at the daily dosage of 10 mg/kg FTY720 (n=6 for the control and FTY720 treated mice, respectively); III, fasting glucose levels of mice at the age of 20 weeks to 29 weeks at the […] dosage of 10 mg/kg FTY720 (n=2 for control and FTY720 treated mice, respectively); IV, fasting glucose levels from the mouse without FTY720 treatment after age of 29 weeks (n=2 for control and FTY720 treated mice, respectively).
Animals and Procedures—Five-week-old female db/db mice (BKS.Cg-m+/−Leprdb) were purchased from Jackson Laboratories (Bar Harbor, Me.). Mice were housed under controlled light (12 h light/12 h dark) and temperature conditions, and had free access to food (normal rodent chow) and water. All procedures were conducted in accordance with the guidelines on Animal Care and were approved by the Institutional Animal Care and Use Committee (IACUC) of Mount Sinai School of Medicine. After 1 week, the fasting glucose levels of the 6-week-old mice were measured. Mice with normal glucose levels (<126 mg/dl) were randomly divided into control and FTY720 treatment groups. Mice in the FTY720-treated group were fed 10 mg/kg of FTY720 daily by feeding tube and their food intake and body weight were measured twice a week. Fasting glucose levels were measured at the end of each week. At 12 weeks of age (when the mice had been treated for 6 weeks), all mice were subjected to metabolic analysis. After metabolic analysis, the pancreases were removed from the mice at 13 and 16 weeks of age for immunohistochemical analysis, quantitation of islet area, or islet isolation.
To rigorously determine the effects of FTY720 in vivo, pre-diabetic (age of six weeks, fasting glucose<126 mg/dL) and diabetic (age of 8-9 weeks, fasting glucose=430 mg/dL) female db/db mice were fed daily with FTY720 (+FTY720) for 29 weeks, and monitored by weekly fasting blood glucose measurements.

cancer formation [1]: no cancer formation was observed
S1P1 expression in islets (S1P1): significantly elevated
Structure (SMILES): CCCCCCCCc1ccc(CCC(N)(CO)CO)cc1 [FTY720, 2-amino-2-[2-(4-octylphenyl)ethyl]propane-1,3-diol]
Bcl-xL mRNA levels (Bcl-xL): significantly increased
distribution of fasting glucose levels (db/db mice; all FTY720-treated db/db mice, after 6 weeks treatment): normalized
fasting glucose levels after FTY720 administration was ceased (db/db mice; db/db mice, administration ceased completely after 29-weeks treatment): well controlled
fasting glucose levels (db/db mice; diabetic db/db mice (glucose ≧350 mg/dL), after six weeks of oral FTY720 10 mg/kg): became normal
fasting glucose levels (screen) (db/db mice; i.p. injected into or orally administrated to db/db mice): capable of normalizing
fasting glucose levels (db/db mice; pre-diabetic db/db mice (six weeks old, fasting glucose <126 mg/dL), 10 mg/kg FTY720 oral daily, untreated about 500 mg/dL by age 12 weeks): ~126 mg/dL
